Legend:
Assay type in all cases: cell-based, human
HOP-62 = assay: NCI one-dose screening, non-small cell lung cancer HOP-62; conditions: 10 μM
MOLT-4 = assay: NCI one-dose screening, leukemia MOLT-4; conditions: 10 μM
SK-MEL-5 = assay: NCI one-dose screening, melanoma SK-MEL-5; conditions: 10 μM
HCT-116 = assay: NCI one-dose screening, colon cancer HCT-116; conditions: 10 μM
COLO 205 = assay: NCI one-dose screening, colon cancer COLO 205; conditions: 10 μM
OVCAR-5 = assay: NCI one-dose screening, ovarian cancer OVCAR-5; conditions: 10 μM
NCl/ADR-RES = assay: NCI one-dose screening, breast cancer NCl/ADR-RES; conditions: 10 μM; listed under Ovarian cancer
SF-539 = assay: NCI one-dose screening, CNS cancer SF-539; conditions: 10 μM
HCT-15 = assay: NCI one-dose screening, colon cancer HCT-15; conditions: 10 μM
OVCAR-3 = assay: NCI one-dose screening, ovarian cancer OVCAR-3; conditions: 10 μM
[1] = system: PC-3 prostate cancer cell line; assay: SRB assay cell viability, PC-3 prostate cancer cell line; conditions: Homo sapiens, PC-3 prostate cancer cell line, Table II prints no unit, μM printed, read-out: SRB assay: 50% inhibition of cancer cell proliferation of sample concentration (IC50) of PC-3 prostate cancer cell line
MALME-3M = assay: NCI one-dose screening, melanoma MALME-3M; conditions: 10 μM
786-O = assay: NCI one-dose screening, renal cancer 786-O; conditions: 10 μM
MDA, -MB-435 = assay: NCI one-dose screening, breast cancer MDA, -MB-435; conditions: 10 μM; listed under Melanoma
CCRF-CEM = assay: NCI screening platform one-dose single concentration screening, leukemia CCRF-CEM; conditions: 10 μM
NCI-H226 = assay: NCI one-dose screening, non-small cell lung cancer NCI-H226; conditions: 10 μM
OVCAR-8 = assay: NCI one-dose screening, ovarian cancer OVCAR-8; conditions: 10 μM
NCI-H322M = assay: NCI one-dose screening, non-small cell lung cancer NCI-H322M; conditions: 10 μM; Non-small cell lung cancer
SK-MEL-2 = assay: NCI one-dose screening, melanoma SK-MEL-2; conditions: 10 μM
SK-MEL-28 = assay: NCI one-dose screening, melanoma SK-MEL-28; conditions: 10 μM
SR = assay: NCI one-dose screening, leukemia SR; conditions: 10 μM
UACC-62 = assay: NCI one-dose screening, melanoma UACC-62; conditions: 10 μM
NCI-H23 = assay: NCI one-dose screening, non-small cell lung cancer NCI-H23; conditions: 10 μM
UACC-257 = assay: NCI one-dose screening, melanoma UACC-257; conditions: 10 μM
NCI-H460 = assay: NCI one-dose screening, non-small cell lung cancer NCI-H460; conditions: 10 μM
ACHN = assay: NCI one-dose screening, renal cancer ACHN; conditions: 10 μM
LOX IMVI = assay: NCI one-dose screening, melanoma LOX IMVI; conditions: 10 μM
PRMI-8226 cell line = assay: NCI one-dose screening, leukemia PRMI-8226; conditions: 10 μM
TK-10 = assay: NCI one-dose screening, renal cancer TK-10; conditions: 10 μM
SN12C = assay: NCI one-dose screening, renal cancer SN12C; conditions: 10 μM
K562cell line = assay: NCI one-dose screening, leukemia K562; conditions: 10 μM
SF-295 = assay: NCI one-dose screening, CNS cancer SF-295; conditions: 10 μM
KM12 = assay: NCI one-dose screening, colon cancer KM12; conditions: 10 μM
M14 = assay: NCI one-dose screening, melanoma M14; conditions: 10 μM
NCI-H522 = assay: NCI one-dose screening, non-small cell lung cancer NCI-H522; conditions: 10 μM
RXF, 393 = assay: NCI one-dose screening, renal cancer RXF, 393; conditions: 10 μM
SNB-75 = assay: NCI one-dose screening, CNS cancer SNB-75; conditions: 10 μM
HT29 = assay: NCI one-dose screening, colon cancer HT29; conditions: 10 μM
U251 = assay: NCI one-dose screening, CNS cancer U251; conditions: 10 μM
CAKI-1 = assay: NCI one-dose screening, renal cancer CAKI-1; conditions: 10 μM
SF-268 = assay: NCI one-dose screening, CNS cancer SF-268; conditions: 10 μM
OVCAR-4 = assay: NCI one-dose screening, ovarian cancer OVCAR-4; conditions: 10 μM
HL-60, TB = assay: NCI one-dose screening, leukemia HL-60, TB; conditions: 10 μM
IGROV1 = assay: NCI one-dose screening, ovarian cancer IGROV1; conditions: 10 μM
HCC-2998 = assay: NCI one-dose screening, colon cancer HCC-2998; conditions: 10 μM
SNB-19 = assay: NCI one-dose screening, CNS cancer SNB-19; conditions: 10 μM
EKVX = assay: NCI one-dose screening, non-small cell lung cancer EKVX; conditions: 10 μM
A549/ATCC = assay: NCI one-dose screening, non-small cell lung cancer A549/ATCC; conditions: 10 μM

Compound: O=C1c2ccccc2C(=O)c2c1cc(Nc1ccc(Cl)cc1F)c1nsnc21 [C65, 4-(4-chloro-2-fluoro-phenylamino)anthra [2,1-c][1,2,5]thiadiazol-6,11-dione]
- Growth Percent HOP-62 (HOP-62): 79.67%
- Growth Percent MOLT-4 (MOLT-4): 20.18%
- Growth Percent SK-MEL-5 (SK-MEL-5): 49.49%
- Growth Percent HCT-116 (HCT-116): 52.51%
- Growth Percent COLO 205 (COLO 205): 90.97%
- Growth Percent OVCAR-5 (OVCAR-5): 114.60%
- Growth Percent NCI/ADR-RES (NCl/ADR-RES): 48.31%
- Growth Percent SF-539 (SF-539): 75.99%
- Growth Percent HCT-15 (HCT-15): 45.61%
- Growth Percent OVCAR-3 (OVCAR-3): 10.25%
- IC50 [1]: > 15 µM
- Growth Percent MALME-3M (MALME-3M): 58.74%
- Growth Percent 786-0 (786-O): 114.97%
- Growth Percent MDA-MB-435 (MDA, -MB-435): 27.37%
- Growth Percent CCRF-CEM (CCRF-CEM): 29.84%
- Growth Percent NCI-H226 (NCI-H226): 74.35%
- Growth Percent OVCAR-8 (OVCAR-8): 36.77%
- Growth Percent NCI-H322M (NCI-H322M): 91.66%
- Growth Percent SK-MEL-2 (SK-MEL-2): 72.52%
- Growth Percent SK-MEL-28 (SK-MEL-28): 87.69%
- Growth Percent SR (SR): 23.58%
- Growth Percent UACC-62 (UACC-62): 85.80%
- Growth Percent NCI-H23 (NCI-H23): 53.59%
- Growth Percent UACC-257 (UACC-257): 50.45%
- Growth Percent NCI-H460 (NCI-H460): 81.55%
- Growth Percent ACHN (ACHN): 74.11%
- Growth Percent LOX IMVI (LOX IMVI): 29.97%
- Growth Percent RPMI-8226 (PRMI-8226 cell line): 40.73%
- Growth Percent TK-10 (TK-10): 110.93%
- Growth Percent SN12C (SN12C): 86.43%
- Growth Percent K562 (K562cell line): 35.29%
- Growth Percent SF-295 (SF-295): 86.04%
- Growth Percent KM12 (KM12): 83.42%
- Growth Percent M14 (M14): 118.36%
- Growth Percent NCI-H522 (NCI-H522): 47.67%
- Growth Percent RXF 393 (RXF, 393): 66.49%
- Growth Percent SNB-75 (SNB-75): 83.19%
- Growth Percent HT29 (HT29): 98.33%
- Growth Percent U251 (U251): 43.08%
- Growth Percent CAKI-1 (CAKI-1): 72.65%
- Growth Percent SF-268 (SF-268): 69.25%
- Growth Percent OVCAR-4 (OVCAR-4): −4.36%
- Growth Percent HL-60(TB) (HL-60, TB): 8.17%
- Growth Percent IGROV1 (IGROV1): 69.50%
- Growth Percent HCC-2998 (HCC-2998): 97.85%
- Growth Percent SNB-19 (SNB-19): 94.57%
- Growth Percent EKVX (EKVX): 80.90%
- Growth Percent A549/ATCC (A549/ATCC): 69.22%

Source: patent US8877748B2, “Heterocyclic fused anthraquinone derivatives, manufacturing method and pharmaceutical composition using thereof” (National Defense Medical Center, priority 2012, dated 2014)
